Assay results published in PubChem BioAssay AID624274 (Broad Institute, 2012).

Target: Protein disulfide-isomerase (Homo sapiens) (UniProt P07237)
Assay: PDI inhibitors, insulin turbidity readout, dose response, biochemical, absorbance, cherry-picked samples, set 2 (AID 624274)
Details: PDI insulin reduction turbidity, absorbance 650 nm

Chain of Protein disulfide-isomerase (Homo sapiens) (P07237 whole entry, looked up): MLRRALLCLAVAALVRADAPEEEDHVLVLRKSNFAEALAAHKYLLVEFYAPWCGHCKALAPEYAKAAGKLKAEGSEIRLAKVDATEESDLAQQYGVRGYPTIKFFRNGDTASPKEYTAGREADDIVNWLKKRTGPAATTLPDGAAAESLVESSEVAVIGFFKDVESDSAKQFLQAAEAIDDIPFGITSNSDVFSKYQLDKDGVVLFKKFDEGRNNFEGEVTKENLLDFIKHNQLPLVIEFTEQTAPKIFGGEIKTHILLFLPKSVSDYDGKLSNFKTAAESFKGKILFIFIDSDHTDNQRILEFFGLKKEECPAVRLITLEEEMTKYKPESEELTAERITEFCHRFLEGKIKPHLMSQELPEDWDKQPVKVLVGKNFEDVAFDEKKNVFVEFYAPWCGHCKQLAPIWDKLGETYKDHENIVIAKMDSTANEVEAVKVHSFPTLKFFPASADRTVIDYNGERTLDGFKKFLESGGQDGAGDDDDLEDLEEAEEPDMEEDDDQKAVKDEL

Row | AC50 [µM] | SMILES
1 | 0.422 | Cn1cnnc1Sc1ccc(/C=C/C(=O)c2ccc(O)cc2)cc1[N+](=O)[O-]
2 | 2.16 | CCN(CC)CCNC(=O)C(C(=O)c1ccccc1)n1ccccc1=O (centres undefined)
3 | 0.819 | COc1ccc(C(=O)Nc2ccccc2C(=O)NCc2ccco2)cc1

Row | SMILES | AC50 [µM]
4 | C[C@]12CC[C@@H]3c4ccc(O[C@@H]5O[C@H](C(=O)O)[C@@H](O)[C@H](O)[C@H]5O)cc4CC[C@H]3[C@@H]1C[C@@H](O)[C@@H]2O | 15.7
